For 26 compounds, IC50, deltaTm and ΔTm results are on record in ChEMBL document CHEMBL2176970, “Discovery and optimization of a series of 3-(3-phenyl-3H-imidazo[4,5-b]pyridin-2-yl)pyridin-2-amines: orally bioavailable, selective, and potent ATP-independent Akt inhibitors” (J Med Chem, 2012).

SMILES strings stand for the structures. The source made the active and inactive calls. The rule behind the calls is not given here. Bounds are passed on as bounds.

Assay [1] concerns the target T1, RAC-alpha serine/threonine-protein kinase (Homo sapiens, UniProt P31749). Briefly: Inhibition of Akt1 (1 to 480) expressed in Sf9 cells using biotin-GRPRTSSFAEG as substrate after 20 mins by Alpha-screen assay.
The target of assay [2] is T1, RAC-alpha serine/threonine-protein kinase. The note with it: Sf9.
Assay [3] has as its system AN3-CA. Briefly: Antiproliferative activity against human AN3CA cells after 72 hrs by MTS assay. It counts as functional, cell-based.
The target of assay [4] is T1, RAC-alpha serine/threonine-protein kinase. As to the kind of experiment: Inhibition of Akt1 in human AN3CA cells assessed as phosphorylation of Akt at S473 after 2 hrs by Western Blot analysis. It counts as cell-based, AN3-CA.
Assay [5] has the same target. As to the kind of experiment: Inhibition of Akt1 in human AN3CA cells assessed as phosphorylation PRAS40 at T246 after 2 hrs by Western Blot analysis. It counts as cell-based, AN3-CA.
Assay [6] shares this target. As to the kind of experiment: Inhibition of Akt1 in human A2780 cells assessed as phosphorylation of Akt at S473 after 2 hrs by Western Blot analysis. It counts as cell-based.
For assay [7] the target is unchanged. As to the kind of experiment: Inhibition of Akt1 in human A2780 cells assessed as phosphorylation PRAS40 at T246 after 2 hrs by Western Blot analysis. Type of assay: cell-based.
In assay [8] the target is T2, RAC-gamma serine/threonine-protein kinase (Homo sapiens, UniProt Q9Y243). As to the kind of experiment: Inhibition of Akt3 (1 to 479) expressed in Sf9 cells using biotin-GRPRTSSFAEG as substrate after 20 mins by Alpha-screen assay.
T2 sequence (Q9Y243 whole entry): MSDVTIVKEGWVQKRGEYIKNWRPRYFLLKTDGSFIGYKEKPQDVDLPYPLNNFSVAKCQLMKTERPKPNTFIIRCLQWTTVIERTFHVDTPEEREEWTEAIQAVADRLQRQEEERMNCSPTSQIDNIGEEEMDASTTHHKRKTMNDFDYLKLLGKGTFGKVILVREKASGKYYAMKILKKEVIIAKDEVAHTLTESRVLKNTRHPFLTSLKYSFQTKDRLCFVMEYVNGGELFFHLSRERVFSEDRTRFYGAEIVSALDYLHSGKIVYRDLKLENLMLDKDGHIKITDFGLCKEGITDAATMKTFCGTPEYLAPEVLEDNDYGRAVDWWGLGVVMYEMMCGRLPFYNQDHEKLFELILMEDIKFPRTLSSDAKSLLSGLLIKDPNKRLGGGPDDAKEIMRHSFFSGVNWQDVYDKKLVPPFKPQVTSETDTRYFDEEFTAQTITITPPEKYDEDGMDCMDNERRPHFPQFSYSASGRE
Assay [9] concerns A2780. As to the kind of experiment: Antiproliferative activity against human A2780 cells after 72 hrs by MTS assay. Type of assay: functional, cell-based. The following applies: A2780, 72 h.
The target of assay [10] is T3, RAC-beta serine/threonine-protein kinase (Homo sapiens, UniProt P31751). Briefly: Inhibition of Akt2 (1 to 481) expressed in Sf9 cells using biotin-GRPRTSSFAEG as substrate after 20 mins by Alpha-screen assay.
T3 sequence (P31751 whole entry): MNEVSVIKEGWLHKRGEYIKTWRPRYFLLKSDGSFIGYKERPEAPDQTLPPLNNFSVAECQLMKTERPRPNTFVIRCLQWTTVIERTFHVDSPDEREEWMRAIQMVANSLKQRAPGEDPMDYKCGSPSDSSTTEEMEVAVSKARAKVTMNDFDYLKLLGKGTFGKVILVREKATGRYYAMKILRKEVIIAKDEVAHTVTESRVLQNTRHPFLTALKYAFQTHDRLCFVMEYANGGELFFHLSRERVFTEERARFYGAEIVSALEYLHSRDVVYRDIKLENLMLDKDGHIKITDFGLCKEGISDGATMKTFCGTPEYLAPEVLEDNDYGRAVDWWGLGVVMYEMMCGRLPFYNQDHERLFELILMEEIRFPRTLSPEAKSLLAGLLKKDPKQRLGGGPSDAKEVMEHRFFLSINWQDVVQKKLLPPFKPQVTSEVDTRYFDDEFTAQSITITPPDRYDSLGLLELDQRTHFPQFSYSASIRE
The target of assay [11] is T1, RAC-alpha serine/threonine-protein kinase. Briefly: Inhibition of Akt 1 in human AN3CA cells assessed as phosphorylation of Akt at T308 after 2 hrs by Western Blot analysis. It counts as cell-based, AN3-CA.
For assay [12], the target named is T3, RAC-beta serine/threonine-protein kinase. Briefly: Binding affinity to Akt2 (1 to 481) expressed in Sf9 cells assessed as change in melting temperature at 15 uM.
The target of assay [13] is T2, RAC-gamma serine/threonine-protein kinase. As to the kind of experiment: Binding affinity to Akt3 (1 to 479) expressed in Sf9 cells assessed as change in melting temperature at 15 uM.
In assay [14] the target is T1, RAC-alpha serine/threonine-protein kinase. As to the kind of experiment: Inhibition of Akt 1 in human A2780 cells assessed as phosphorylation of Akt at T308 after 2 hrs by Western Blot analysis. It counts as cell-based.
Assay [15] shares this target. Briefly: Inhibition of Akt1 (1 to 480) expressed in Sf9 cells by indirect affinity mass spectrometry assay.

T1 sequence (P31749 whole entry): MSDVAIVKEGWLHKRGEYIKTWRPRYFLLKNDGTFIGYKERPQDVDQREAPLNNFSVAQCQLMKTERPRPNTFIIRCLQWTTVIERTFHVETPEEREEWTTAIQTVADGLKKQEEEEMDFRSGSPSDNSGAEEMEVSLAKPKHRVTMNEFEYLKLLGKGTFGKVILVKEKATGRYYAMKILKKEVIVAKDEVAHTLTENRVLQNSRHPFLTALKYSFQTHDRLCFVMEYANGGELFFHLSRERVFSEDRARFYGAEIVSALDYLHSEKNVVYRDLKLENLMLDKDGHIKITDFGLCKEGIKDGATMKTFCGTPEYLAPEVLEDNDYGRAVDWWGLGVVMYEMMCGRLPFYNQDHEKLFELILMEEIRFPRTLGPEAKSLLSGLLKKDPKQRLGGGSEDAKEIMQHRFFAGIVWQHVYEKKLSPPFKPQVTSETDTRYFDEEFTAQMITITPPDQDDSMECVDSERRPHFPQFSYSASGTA

With `Nc1ncccc1-c1nc2cccnc2n1-c1cccc(CNC(=O)c2ccccc2)c1`, in assay [1], the IC50 was determined as 13000 nM. Also, the deltaTm result in [2] was “inactive”.

In the case of `Nc1ncccc1-c1nc2ccc(-c3ccccc3)nc2n1-c1ccc(CNC(=O)c2ccccc2)cc1`, the IC50 in assay [3] is 5.5 µM; in assay [4] it was more than 10000 nM; in assay [5], more than 10000 nM; in assay [6] it was 68 nM; in [7], 410 nM; in assay [8], 390 nM. Besides, the IC50 in [9] was 9.5 µM; in assay [10] it was 35 nM; in assay [11], more than 10000 nM; in assay [1], 24 nM; in assay [14], 180 nM. In addition, the figures for the ΔTm in [12], in assay [13] and in [2] were 6.4 °C, 1.8 °C and 11 °C, respectively.

Take `Nc1ncccc1-c1nc2cc(-c3cccnc3)cnc2n1-c1ccc(CNC(=O)c2cccc(F)c2)cc1`: the IC50 in assay [3] was 13 µM; in assay [4] it was 46 nM; in assay [5], 820 nM; in assay [6] it was 54 nM; in assay [7], 580 nM; in assay [9] it was 19 µM. Also, the IC50 in assay [10] was found to be 27 nM; in [11], 49 nM; in assay [1] it was 5.2 nM; in assay [14] it was 200 nM. Further, the ΔTm was determined as 5.4 °C in assay [12], 1.5 °C in [13] and 9.4 °C in assay [2].

In the case of `CC(=O)Nc1ccc(-n2c(-c3cccnc3N)nc3cccnc32)cc1`, in assay [1], the IC50 came out at 1300 nM. The ΔTm in [2] worked out at 3.7 °C.

As to `CC(C)(C)c1ccc(-n2c(-c3cccnc3N)nc3cc(Br)cnc32)cc1`, the IC50 in assay [1] was more than 300000 nM. Besides, the ΔTm in assay [2] is 0.9 °C.

The compound `COc1ccccc1Cn1c(-c2cccnc2N)nc2cc(Br)cnc21` yielded an IC50 in assay [1] of more than 300000 nM. For the same compound, the deltaTm result in [2] is “inactive”.

Regarding `Nc1ncccc1-c1nc2ccc(-c3cccnc3)nc2n1-c1ccc(CC(=O)Nc2ccccc2)cc1`, the IC50 in assay [3] was found to be 8.8 µM; in [4], 69 nM; in assay [5], 2500 nM; in assay [6] it was 65 nM; in assay [7], 480 nM; in [8], 390 nM. Moreover, the IC50 worked out at 9.4 µM in assay [9]; 25 nM in [10]; 51 nM in assay [11]; 50 nM in [1]; 55 nM in assay [14]. Moreover, the values for the ΔTm in [12], in [13] and in [2] were 5.1 °C, 1.8 °C and 10.8 °C, respectively.

In the case of `COc1ccccc1Cn1c(-c2ccncc2)nc2cc(Br)cnc21`, the IC50 in assay [15] is 5.9 µM; in [1] it was more than 300000 nM. In addition, the deltaTm entry in assay [2] is “inactive”.

`CC(C)(C)c1ccc(-n2c(-c3cccnc3N)nc3cccnc32)cc1`: the ΔTm in assay [2] was 1.9 °C.

Regarding `Nc1ncccc1-c1nc2ccc(-c3cccnc3)nc2n1-c1ccc(CNC(=O)c2ccccc2)cc1`, the IC50 in assay [3] worked out at 13 µM; in [4] it was 1400 nM; in assay [5], 3200 nM; in assay [6] it was 34 nM; in assay [7], 740 nM; in assay [8], 370 nM. Moreover, the IC50 came to 23 µM in [9], 32 nM in assay [10], 4200 nM in assay [11] and 67 nM in assay [14]. Moreover, the ΔTm worked out at 4 °C in assay [12], 1 °C in assay [13] and 9.7 °C in assay [2].

In the case of `CC(C)(C)c1ccc(-n2c(-c3ccncc3)nc3cccnc32)cc1`, the IC50 in assay [1] was more than 300000 nM. Besides, in assay [2], the deltaTm entry is “inactive”.

Turning to `Nc1ncccc1-c1nc2cccnc2n1-c1ccc(CNC(=O)Cc2ccccc2)cc1`, the ΔTm in assay [2] was determined as 4.7 °C.

Regarding `Nc1ncccc1-c1nc2cccnc2n1-c1ccc(CNCc2ccccc2)cc1`, the IC50 in assay [1] came to 260 nM. Moreover, the ΔTm in assay [2] is 4.9 °C.

Turning to `Nc1ccc(-n2c(-c3cccnc3N)nc3cccnc32)cc1`, in assay [1], the IC50 was 740 nM. Further, in assay [2], the ΔTm stood at 4.1 °C.

Consider `Nc1ncccc1-c1nc2cc(-c3ccccc3)cnc2n1-c1ccc(CNC(=O)c2ccccc2)cc1`, for which the IC50 in assay [3] was more than 100 µM; in [4] it was 160 nM; in assay [5] it was 980 nM; in assay [6], 330 nM; in [7], 1800 nM; in assay [8], more than 100000 nM. For the same compound, the IC50 in assay [9] was more than 100 µM; in assay [10], 51000 nM; in assay [11], 1100 nM; in assay [1], 33 nM; in assay [14], 680 nM. The ΔTm in assay [12] amounted to 1.2 °C; in [2], 5.61 °C. For the same compound, the deltaTm result in assay [13] is “inactive”.

Take `CC(=O)Nc1cccc(-c2ccc3nc(-c4cccnc4N)n(-c4ccc(CNC(=O)c5ccccc5)cc4)c3n2)c1`: the IC50 came out at 1.5 µM in assay [3]; 110 nM in assay [4]; 840 nM in [5]; 130 nM in assay [6]; 910 nM in assay [7]; 170 nM in [8]. Moreover, the half-maximal inhibitory concentration (IC50) in assay [9] turned out to be 1.6 µM; in assay [10] it was 47 nM; in assay [11], 170 nM; in assay [1], 15 nM; in assay [14], 140 nM. Besides, the ΔTm in assay [12] was determined as 6.7 °C; in [13], 2.5 °C; in assay [2], 12.8 °C.

Consider `CC(=O)Nc1cccc(-c2ccc3nc(-c4cccnc4N)n(-c4ccc(CC(=O)Nc5cccc(F)c5)cc4)c3n2)c1`, for which the IC50 in assay [3] was determined as 1.7 µM; in assay [4], 90 nM; in assay [5], 1500 nM; in assay [6] it was 120 nM; in assay [7] it was 140 nM; in [8] it was 2500 nM. The IC50 was 3.3 µM in assay [9]; 24 nM in assay [10]; 260 nM in assay [11]; 17 nM in assay [1]; 15 nM in [14]. For the same compound, the ΔTm in assay [12] worked out at 6.7 °C; in assay [13], 1.5 °C; in assay [2] it was 11.1 °C.

In assay [1], `Nc1ncccc1-c1nc2cccnc2n1-c1ccc(NC(=O)c2ccccc2)cc1` had an IC50 of 14 nM. The ΔTm in assay [2] is 7.3 °C.

As for `Nc1ncccc1-c1nc2cc(Br)cnc2n1-c1ccc(CNC(=O)c2ccccc2)cc1`, the IC50 in assay [3] is 60 µM; in assay [4] it was 2500 nM; in assay [5], more than 10000 nM; in assay [6], less than 12 nM; in assay [7] it was 3100 nM; in [8], more than 10000 nM. Also, the IC50 in assay [9] was 65 µM; in assay [10] it was 130 nM; in assay [11], more than 10000 nM; in [1] it was 27 nM; in [14] it was 170 nM. Besides, the shift in melting temperature (ΔTm) in assay [12] amounted to 3 °C; in [13], 1 °C; in assay [2] it was 8.1 °C.

Take `Nc1ncccc1-c1nc2cc(C3CCCC3)cnc2n1-c1ccc(CNC(=O)c2ccccc2)cc1`: the half-maximal inhibitory concentration (IC50) is 33 µM in assay [3]; 3700 nM in assay [4]; more than 10000 nM in assay [5]; 2100 nM in assay [7]; more than 100000 nM in [8]; 65 µM in assay [9]. The IC50 in [10] worked out at 800 nM; in assay [11], 9400 nM; in assay [15], 12 µM; in [1], 110 nM; in assay [14], 210 nM. Besides, the ΔTm came out at 3.3 °C in assay [12] and 6 °C in assay [2]. In addition, the deltaTm result in [13] was “inactive”.

For `CC(C)(C)c1ccc(-n2c(-c3cccnc3)nc3cccnc32)cc1`, in assay [1], the IC50 was determined as 185000 nM. For the same compound, in assay [2], the deltaTm entry is “inactive”.

For the compound `COc1ccccc1Cn1c(-c2cccnc2N)nc2cccnc21`, in assay [1], the IC50 was 58000 nM. Moreover, the deltaTm entry in assay [2] is “inactive”.

As for `CC(=O)NCc1ccc(-n2c(-c3cccnc3N)nc3cccnc32)cc1`, in assay [1], half-maximal inhibition (IC50) was put at 810 nM. Further, the ΔTm in [2] stood at 2.3 °C.

Consider `Nc1ncccc1-c1nc2ccc(-c3cccnc3)nc2n1-c1ccc(CNC(=O)c2cccc(F)c2)cc1`, for which the IC50 in [3] was 10 µM; in [4], 95 nM; in [5] it was 2100 nM; in assay [6], 190 nM; in [7], 1300 nM; in assay [8], 660 nM. For the same compound, the IC50 stood at 10 µM in [9]; 80 nM in assay [10]; 340 nM in [11]; 47 nM in [1]; 690 nM in [14]. The ΔTm amounted to 5.7 °C in assay [12], 1.6 °C in assay [13] and 11.1 °C in [2].

`CC(C)(C)c1cccc(-n2c(-c3cccnc3N)nc3cccnc32)c1` registered an IC50 in assay [1] of more than 300000 nM. The deltaTm entry in [2] is “inactive”.

`NCc1ccc(-n2c(-c3cccnc3)nc3cccnc32)cc1` gave an IC50 in [1] of 8800 nM. Further, the deltaTm entry in assay [2] is “inactive”.
